Experimental data: US20090111798A1, “5,6-DIHYDRO-1H-PYRIDIN-2-ONE COMPOUNDS” (priority 2006, published 2009)
pIC50: −log10 of the molar value. Where a name gives a salt, the structure may show the parent alone.

target: NS5B polymerase (Hepatitis C virus genotype 1b, UniProt P26663); test: biochemical; conditions: NS5B polymerase inhibition; 20 nM enzyme, 75 min at 28° C.
Protocol: Compounds were tested for HCV polymerase inhibition. Assays were performed in a 96-well streptavidin-coated FlashPlate using 20 nM enzyme, 0.5μ Ci of [α-^33P]GTP, 0.6 μM GTP, and 250 nM 5′biotinylated oligo (rG13)/poly rC in 20 mM Tris-HCl, pH 7.5, 5 mM MgCl2, 5 mM dithiothreitol, 0.1 g/L bovine serum albumin, and 100 U/mL RNAse inhibitor. The reaction was stopped by aspiration after 75 min at 28° C. and the plate was washed several times. After washing and drying the plate, incorporated radioactivity was counted using a Microbeta scintillation counter. IC50 values were calculated relative to the uninhibited control and inhibition data were fitted to a 4-parameter IC50 equation.

Chain of NS5B polymerase (P26663 2420-3010): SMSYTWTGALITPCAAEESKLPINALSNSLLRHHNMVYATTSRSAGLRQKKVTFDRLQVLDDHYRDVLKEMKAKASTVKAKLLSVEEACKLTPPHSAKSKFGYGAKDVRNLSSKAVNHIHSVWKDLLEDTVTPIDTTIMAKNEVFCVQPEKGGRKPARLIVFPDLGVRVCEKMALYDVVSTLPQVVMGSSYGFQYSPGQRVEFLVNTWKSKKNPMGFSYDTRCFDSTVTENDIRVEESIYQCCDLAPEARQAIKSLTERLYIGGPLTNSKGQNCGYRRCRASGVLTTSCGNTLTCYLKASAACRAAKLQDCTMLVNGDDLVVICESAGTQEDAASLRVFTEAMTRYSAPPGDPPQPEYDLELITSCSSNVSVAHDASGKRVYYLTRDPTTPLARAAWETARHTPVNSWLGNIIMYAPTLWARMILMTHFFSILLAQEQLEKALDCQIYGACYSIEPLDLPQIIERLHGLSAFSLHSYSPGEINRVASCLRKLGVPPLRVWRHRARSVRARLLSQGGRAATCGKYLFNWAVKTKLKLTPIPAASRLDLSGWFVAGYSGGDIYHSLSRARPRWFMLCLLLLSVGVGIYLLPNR

**Q.** With `CC(C)CCN1C(=O)C(C2=NS(=O)(=O)c3cc(NS(C)(=O)=O)ccc3N2)=C(O)C2CCCCCC21` (centres unmarked) [Example 33, N-{3-[4-Hydroxy-1-(3-methyl-butyl)-2-oxo-2,4-a,5,6,7,8,9,9a-octahydro-1H-cyclohepta[b]pyridin-3-yl]-1,1-dioxo-1,4-dihydro-1λ^6-benzo[1,2,4]thiadiazin-7-yl}-methanesulfonamide] as the compound, how does the pIC50 read?
**A.** 7.00 to 7.70

**Q.** `CC(C)CCN1C(=O)C(C2=NS(=O)(=O)c3cc(N(C)S(C)(=O)=O)ccc3N2)=C(O)C2CCCCCC21` (centres unmarked) [Example 34, N-{3-[4-Hydroxy-1-(3-methyl-butyl)-2-oxo-2,4-a,5,6,7,8,9,9a-octahydro-1H-cyclohepta[b]pyridin-3-yl]-1,1-dioxo-1,4-dihydro-1λ^6-benzo[1,2,4]thiadiazin-7-yl}-N-methyl-methanesulfonamide] was tested. Which pIC50 did it give?
**A.** 6.00 to 7.00

**Q.** How did the pIC50 turn out when `CC(C)(C)CCN1C(=O)C(C2=NS(=O)(=O)c3cc(NS(C)(=O)=O)ccc3N2)=C(O)C2CCCCCCC21` (centres unmarked) [Example 35, N-{3-[1-(3,3-Dimethyl-butyl)-4-hydroxy-2-oxo-1,2,4a,5,6,7,8,9,10,10a-decahydro-cycloocta[b]pyridin-3-yl]-1,1-dioxo-1,4-dihydro-1λ^6-benzo[1,2,4]thiadiazin-7-yl]-methanesulfonamide] was run?
**A.** 4.00 to 6.00

**Q.** How did the pIC50 turn out when `CN(c1ccc2c(c1)S(=O)(=O)N=C(C1=C(O)C3CCCCCCC3N(CCC(C)(C)C)C1=O)N2)S(C)(=O)=O` (centres unmarked) [Example 36, N-{3-[1-(3,3-Dimethyl-butyl)-4-hydroxy-2-oxo-1,2,4a,5,6,7,8,9,10,10a-decahydro-cycloocta[b]pyridin-3-yl]-1,1-dioxo-1,4-dihydro-1λ^6-benzo[1,2,4]thiadiazin-7-yl]-N-methyl-methanesulfonamide] was run?
**A.** 4.00 to 6.00

**Q.** `O=C1C(C2=NS(=O)(=O)c3cc(I)ccc3N2)=C(O)[C@@H]2CCC[C@@H]2N1Cc1ccc(F)cc1` [Example 39, (4aR,7aS)-1-(4-Fluoro-benzyl)-4-hydroxy-3-(7-iodo-1,1-dioxo-1,4-dihydro-1λ^6-benzo[1,2,4]thiadiazin-3-yl)-1,4-a,5,6,7,7a-hexahydro-[1]pyrindin-2-one] was tested. Which pIC50 did it give?
**A.** 4.00 to 6.00

**Q.** How did the pIC50 turn out when `O=C1C(C2=NS(=O)(=O)c3cc(NS(=O)(=O)c4ccccc4)ccc3N2)=C(O)[C@@H]2CCC[C@@H]2N1Cc1ccc(F)cc1` [Example 40, (4aR,7aS)—N-{3-[1-(4-Fluoro-benzyl)-4-hydroxy-2-oxo-2,4-a,5,6,7,7a-hexahydro-1H-[1]pyrindin-3-yl]-1,1-dioxo-1,4-dihydro-1λ^6-benzo[1,2,4]thiadiazin-7-yl]-benzenesulfonamide] was run?
**A.** 7.00 to 7.70

**Q.** With `O=C1C(C2=NS(=O)(=O)c3cc(N4CCCCC4)ccc3N2)=C(O)[C@@H]2CCC[C@@H]2N1Cc1ccc(F)cc1` [Example 42, (4aR,7aS)-3-(1,1-Dioxo-7-piperidin-1-yl-1,4-dihydro-1λ^6-benzo[1,2,4]thiadiazin-3-yl)-1-(4-fluoro-benzyl)-4-hydroxy-1,4-a,5,6,7,7a-hexahydro-[1]pyrindin-2-one] as the compound, how does the pIC50 read?
**A.** 4.00 to 6.00

**Q.** `O=C1C(C2=NS(=O)(=O)c3cc(C4=CCCS4(=O)=O)ccc3N2)=C(O)[C@@H]2CCC[C@@H]2N1Cc1ccc(F)cc1` [Example 44, (4aR,7aS)-3-[7-(1,1-Dioxo-4,5-dihydro-1H-1λ^6-thiophen-2-yl)-1,1-dioxo-1,4-dihydro-1λ^6-benzo[1,2,4]thiadiazin-3-yl]-1-(4-fluoro-benzyl)-4-hydroxy-1,4a,5,6,7,7a-hexahydro-[1]pyrindin-2-one] was tested. Which pIC50 did it give?
**A.** 6.00 to 7.00

**Q.** How did the pIC50 turn out when `O=C1C(C2=NS(=O)(=O)c3cc(I)ccc3N2)=C(O)C2CCCCCC2N1Cc1ccc(F)cc1` (centres unmarked) [Example 46, 1-(4-Fluoro-benzyl)-4-hydroxy-3-(7-iodo-1,1-dioxo-1,4-dihydro-1λ^6-benzo[1,2,4]thiadiazin-3-yl)-1,4-a,5,6,7,8,9,9a-octahydro-cyclohepta[b]pyridin-2-one] was run?
**A.** 4.00 to 6.00

**Q.** How did the pIC50 turn out when `CS(=O)(=O)Nc1ccc2c(c1)S(=O)(=O)N=C(C1=C(O)C3CCCCC3N(C3CCCCC3)C1=O)N2` (centres unmarked) [Example 49, N-[3-(1-Cyclohexyl-4-hydroxy-2-oxo-1,2,4a,5,6,7,8,8a-octahydro-quinolin-3-yl)-1,1-dioxo-1,4-dihydro-1λ^6-benzo[1,2,4]thiadiazin-7-yl]-methanesulfonamide] was run?
**A.** 6.00 to 7.00

**Q.** With `O=C1C(C2=NS(=O)(=O)c3cc(I)ccc3N2)=C(O)C2CCCCC2N1Cc1ccc(F)cc1` (centres unmarked) [Example 50, 1-(4-Fluoro-benzyl)-4-hydroxy-3-(7-iodo-1,1-dioxo-1,4-dihydro-1λ^6-benzo[1,2,4]thiadiazin-3-yl)-4-a,5,6,7,8,8a-hexahydro-1H-quinolin-2-one] as the compound, how does the pIC50 read?
**A.** 4.00 to 6.00

**Q.** `O=C1C(C2=NS(=O)(=O)c3cc(NS(=O)(=O)Cc4ccccc4)ccc3N2)=C(O)[C@@H]2CCC[C@@H]2N1Cc1ccc(F)cc1` [Example 52, (4aR,7aS)-N-{3-[1-(4-Fluoro-benzyl)-4-hydroxy-2-oxo-2,4a,5,6,7,7a-hexahydro-1H-[1]pyrindin-3-yl]-1,1-dioxo-1,4-dihydro-1λ^6-benzo[1,2,4]thiadiazin-7-yl}-C-phenyl-methanesulfonamide] was tested. Which pIC50 did it give?
**A.** 6.00 to 7.00

**Q.** `CS(=O)(=O)Nc1ccc2c(c1)S(=O)(=O)N=C(C1=C(O)C3CCCCCC3NC1=O)N2` (centres unmarked) [Example 59, N-[3-(4-Hydroxy-2-oxo-2,4a,5,6,7,8,9,9a-octahydro-1H-cyclohepta[b]pyridin-3-yl)-1,1-dioxo-1,4-dihydro-1λ^6-benzo[1,2,4]thiadiazin-7-yl]-methanesulfonamide] was tested. Which pIC50 did it give?
**A.** 4.00 to 6.00

**Q.** How did the pIC50 turn out when `CS(=O)(=O)Nc1ccc2c(c1)S(=O)(=O)N=C(C1=C(O)C3CCCCCC3N(NC3CCC3)C1=O)N2` (centres unmarked) [Example 60, N-[3-(1-Cyclobutylamino-4-hydroxy-2-oxo-2,4a,5,6,7,8,9,9a-octahydro-1H-cyclohepta[b]pyridin-3-yl)-1,1-dioxo-1,4-dihydro-1λ^6-benzo[1,2,4]thiadiazin-7-yl]-methanesulfonamide trifluoroaceticacid salt] was run?
**A.** 7.00 to 7.70
